Molecular target: GSK3β (Homo sapiens, UniProt P49841)
Experiment: Inhibitory activity against GSK3β (33P-ATP phosphorylation of prephosphorylated GS1 peptide, two protocols)
Type: biochemical
Conditions: GS1 peptide / 33P-ATP filter assay; which of the two protocols was used is not stated
Method: Inhibitory activity of the medicament of the present invention against GSK3β: Two different protocols can be used. In a first protocol: 7.5 μM of prephosphorylated GS1 peptide and 10 μM ATP (containing 300,000 cpm of 33P-ATP) were incubated in 25 mM Tris-HCl, pH 7.5, 0.6 mM DTT 6 mM MgCl2, 0.6 mM EGTA, 0.05 mg/ml BSA buffer for 1 hour at room temperature in the presence of GSK3beta (total reaction volume: 100 microliters). In a second protocol: 4.1 μM of prephosphorylated GSI peptide and 42 μM ATP (containing 260,000 cpm 33P-ATP) were incubated in 80 mM Mes-NaOH, pH 6.5, 1 mM Mg acetate, 0.5 mM EGTA, 5 mM 2-mercaptoethanol, 0.02% Tween 20,10% glycerol buffer for 2 hours at room temperature in the presence of GSK3beta. Inhibitors were solubilised in DMSO (final solvent concentration in the reaction medium, 1%). The reaction was stopped with 100 microliters of a solution made of 25 g polyphosphoric acid (85% P2O5), 126 ml 85% H3PO4, H2O to 500 ml and then diluted to 1:100 before use. An aliquot of the reaction mixture was then transferred to Whatman P81 cation exchange filters and rinsed with the solution described above. Incorporated 33P radioactivity was determined by liquid scintillation spectrometry. The phosphorylated GS-1 peptide had the following sequence: NH2-[…](P)EDEE-COOH. […]

Chain of GSK3β (P49841 whole entry, species assumed): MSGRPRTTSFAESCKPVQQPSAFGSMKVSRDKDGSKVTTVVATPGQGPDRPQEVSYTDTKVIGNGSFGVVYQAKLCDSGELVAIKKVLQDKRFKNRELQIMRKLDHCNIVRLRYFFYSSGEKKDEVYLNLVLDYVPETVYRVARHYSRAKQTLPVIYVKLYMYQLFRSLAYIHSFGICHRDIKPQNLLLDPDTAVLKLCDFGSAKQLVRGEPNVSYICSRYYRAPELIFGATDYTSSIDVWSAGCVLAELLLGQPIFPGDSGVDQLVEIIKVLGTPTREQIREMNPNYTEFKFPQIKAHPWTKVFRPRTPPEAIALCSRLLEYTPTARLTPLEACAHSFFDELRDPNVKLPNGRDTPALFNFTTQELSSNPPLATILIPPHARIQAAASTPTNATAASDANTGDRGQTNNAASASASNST

CN1CCC2(CC1)CCn1c(nc(-c3ccncc3)cc1=O)N2CC(=O)c1ccccc1 [compound No. 4 of table 1, 1-Methyl-1′-(2-oxo-2-phenylethyl)-8′-(pyridin-4-yl)-3′,4′-dihydrospiro[piperidine-4,2′-pyrimido[1,2-a]pyrimidin]-6′(1′H)-one]
IC50: 7 nM

CN1CCC2(CCn3c(nc(-c4ccncc4)cc3=O)N2CC(=O)c2ccccc2)C1 (centres unmarked) [compound No. 4 of table 2, 1′-Methyl-1-(2-oxo-2-phenylethyl)-8-(pyridin-4-yl)-3,4-dihydrospiro (pyrimido[1,2-a]pyrimidine-2,3′-pyrrolidin]-6(1H)-one]
IC50: 6 nM

— patent publication US7547705B2, “Substituted 8′-pyri(MI)dinyl-dihydrospiro-[cycloalkylamine]-pyrimido[1,2-a]pyrimidin-6-one derivatives” (Sanofi-Aventis, priority 2003, dated 2009)
